Values joined by “and” are separate entries in the source; they are usually repeats but may differ in a detail not shown here. Identical values can stand only once. Toxic doses and inconclusive results are not listed. No stated cut-off is given here; in the data, active means T/C of 150% or more; inactive means T/C below 125%. Square brackets hold non-standard residues; d marks the D form. Peptide text beside a SMILES is read from it. * marks the point of attachment. ξ: configuration not given here. ξY = NC(Cc1ccc(O)cc1)C(=O)O; Cbz = O=C(OCc1ccccc1)*; OBn = c1ccc(CO*)cc1
Tested on: L1210 leukemia ip in BDF1 mice, survival T/C
Test: NCI In Vivo Anticancer Drug Screen. Data for tumor model L1210 Leukemia (intraperitoneal) in B6D2F1 (BDF1) mice
Conditions: endpoint: mean survival time, higher = longer survival
Method in brief: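 Tumor was transplanted into mice, which were then dosed with test compound or vehicle alone. Survival was recorded for each group, and the treated figure was expressed relative to the control figure.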

[1] = dose: 100.0 mg/kg/injection, schedule: Q04DX003 (ip), vehicle: Klucel (hydroxypropylcellulose) (HPC)
[2] = dose: 200.0 mg/kg/injection, schedule: Q04DX003 (ip), vehicle: Klucel (hydroxypropylcellulose) (HPC)
[3] = dose: 400.0 mg/kg/injection, schedule: Q04DX003 (ip), vehicle: Klucel (hydroxypropylcellulose) (HPC)
[4] = dose: 100.0 mg/kg/injection, schedule: Q04DX002 (ip), vehicle: saline
[5] = dose: 200.0 mg/kg/injection, schedule: Q04DX002 (ip), vehicle: saline
[6] = dose: 400.0 mg/kg/injection, schedule: Q04DX002 (ip), vehicle: saline
[7] = dose: 25.0 mg/kg/injection, schedule: Q04DX003 (ip), vehicle: Klucel (hydroxypropylcellulose) (HPC)
[8] = dose: 50.0 mg/kg/injection, schedule: Q04DX003 (ip), vehicle: Klucel (hydroxypropylcellulose) (HPC)
[9] = dose: 100.0 mg/kg/injection, schedule: Q04DX003 (ip), vehicle: saline
[10] = dose: 200.0 mg/kg/injection, schedule: Q04DX003 (ip), vehicle: saline
[11] = dose: 100.0 mg/kg/injection, schedule: Q01DX009 (ip), vehicle: Klucel (hydroxypropylcellulose) (HPC)
[12] = dose: 200.0 mg/kg/injection, schedule: Q01DX009 (ip), vehicle: Klucel (hydroxypropylcellulose) (HPC)
[13] = dose: 400.0 mg/kg/injection, schedule: Q01DX009 (ip), vehicle: Klucel (hydroxypropylcellulose) (HPC)
[14] = dose: 100.0 mg/kg/injection, schedule: Q01DX001 (ip), vehicle: saline
[15] = dose: 200.0 mg/kg/injection, schedule: Q01DX001 (ip), vehicle: saline
[16] = dose: 100.0 mg/kg/injection, schedule: Q04DX003 (ip), vehicle: saline with Tween-80
[17] = dose: 200.0 mg/kg/injection, schedule: Q04DX003 (ip), vehicle: saline with Tween-80
[18] = dose: 400.0 mg/kg/injection, schedule: Q04DX003 (ip), vehicle: saline with Tween-80

Measured: T/C

O=C(CNC(=O)OCc1ccccc1)NC(Cc1ccc(O)cc1)C(=O)OCc1ccccc1 (stereo not drawn) (Cbz-Gly-[ξY]-OBn)
inactive: [1] 96 % of control | [2] 97 % of control | [3] 91 % of control

CC(=O)c1ccc(C#N)cc1.[Co+3].[NH2-].[NH2-].[NH2-].[NH2-].[NH2-].[O-][Cl+3]([O-])([O-])O
inactive: [4] 104 % of control | [5] 111 % of control | [6] 108 % of control

Cn1c(=N)sc2ccc3ccccc3c21
inactive: dose: 12.5 mg/kg/injection, schedule: Q04DX003 (ip), vehicle: Klucel (hydroxypropylcellulose) (HPC) 90 % of control | [7] 91 % of control | [8] 98 % of control | [1] 86 % of control

CC(=O)Nc1cc(Cl)ccc1C(=O)O
inactive: dose: 100.0 mg/kg/injection, schedule: Q01DX001 (ip), vehicle: other 109 % of control | dose: 100.0 mg/kg/injection, schedule: Q04DX003 (ip), vehicle: other 96 % of control | dose: 200.0 mg/kg/injection, schedule: Q01DX001 (ip), vehicle: other 98 % of control | dose: 200.0 mg/kg/injection, schedule: Q04DX003 (ip), vehicle: other 90 % of control | dose: 400.0 mg/kg/injection, schedule: Q01DX001 (ip), vehicle: other 101 % of control | dose: 400.0 mg/kg/injection, schedule: Q04DX003 (ip), vehicle: other 96 % of control

CCOC1OC(C2COC(=O)O2)C(O)C1O (stereo not given)
inactive: [4] 100 % of control | [5] 100 % of control and 104 % of control | [6] 100 % of control | dose: 800.0 mg/kg/injection, schedule: Q04DX002 (ip), vehicle: saline 100 % of control

COc1ccc(N=Cc2cc(Br)cc(Br)c2O)cc1.COc1ccc(N=Cc2cc(Br)cc(Br)c2O)cc1.[Co]
inactive: dose: 50.0 mg/kg/injection, schedule: Q04DX003 (ip), vehicle: saline 92 % of control | [9] 92 % of control | [10] 95 % of control

CCOC(=O)CCCNc1ccccc1C(=O)OC
inactive: dose: 100.0 mg/kg/injection, schedule: Q01DX001 (ip), vehicle: carboxymethylcellulose (CMC) 110 % of control | dose: 200.0 mg/kg/injection, schedule: Q01DX001 (ip), vehicle: carboxymethylcellulose (CMC) 107 % of control | dose: 400.0 mg/kg/injection, schedule: Q01DX001 (ip), vehicle: carboxymethylcellulose (CMC) 107 % of control

CCC(=O)Nc1ccccc1
inactive: [11] 101 % of control | [1] 100 % of control | [12] 95 % of control | [2] 104 % of control | [13] 108 % of control | [3] 114 % of control

NCc1ccc([N+](=O)[O-])cc1
inactive: dose: 50.0 mg/kg/injection, schedule: Q01DX009 (ip), vehicle: saline 93 % of control | [14] 96 % of control | dose: 100.0 mg/kg/injection, schedule: Q01DX009 (ip), vehicle: saline 96 % of control | [9] 101 % of control | [15] 104 % of control | dose: 200.0 mg/kg/injection, schedule: Q01DX009 (ip), vehicle: saline 110 % of control | [10] 93 % of control

N#CCc1nc2ccccc2[nH]1
inactive: dose: 50.0 mg/kg/injection, schedule: Q01DX009 (ip), vehicle: Klucel (hydroxypropylcellulose) (HPC) 97 % of control | [8] 101 % of control | dose: 100.0 mg/kg/injection, schedule: Q01DX001 (ip), vehicle: Klucel (hydroxypropylcellulose) (HPC) 102 % of control | [11] 98 % of control | [1] 98 % of control | [12] 88 % of control | [2] 101 % of control

CC(=O)c1cccc(N=Cc2ccc(Cl)cc2Cl)c1
inactive: [11] 95 % of control | [12] 93 % of control | [13] 93 % of control

CCC(C)C1NC(=O)C(C(C)=O)=C1O.[Cu+2] (stereo not given)
inactive: dose: 150.0 mg/kg/injection, schedule: Q01DX001 (ip), vehicle: carboxymethylcellulose (CMC) 105 % of control

COc1ccc2c(cc1=O)CC=CC1CC(OC)C(OC)C(OC)C21 (stereo not given)
inactive: [16] 92 % of control | [17] 93 % of control | [18] 101 % of control

C1CSC2(CCC(C3CCC4(CC3)SCCS4)CC2)S1 (stereo not given)
inactive: dose: 75.0 mg/kg/injection, schedule: Q01DX009 (ip), vehicle: saline 92 % of control | [14] 88 % of control | dose: 150.0 mg/kg/injection, schedule: Q01DX009 (ip), vehicle: saline 97 % of control | [15] 91 % of control | dose: 300.0 mg/kg/injection, schedule: Q01DX009 (ip), vehicle: saline 87 % of control | dose: 400.0 mg/kg/injection, schedule: Q01DX001 (ip), vehicle: saline 93 % of control

CC(C)(Cc1c[nH]c2ccccc12)NC(=O)c1ccccc1
inactive: [11] 90 % of control | [1] 100 % of control | [2] 98 % of control | [13] 92 % of control | [3] 98 % of control

CC1C(=O)OC2CC[N+]3(CC(=O)c4ccc(Br)cc4)CC=C(COC(=O)C(C)(O)C1(C)O)C23 (stereo not given)
inactive: [9] 104 % of control | [10] 102 % of control | dose: 400.0 mg/kg/injection, schedule: Q04DX003 (ip), vehicle: saline 87 % of control

CC[NH-].CC[NH-].[Cl][Pt+2][Cl]
inactive: dose: 0.75 mg/kg/injection, schedule: Q01DX009 (ip), vehicle: other 106 % of control | dose: 1.5 mg/kg/injection, schedule: Q01DX001 (ip), vehicle: other 101 % of control | dose: 1.5 mg/kg/injection, schedule: Q01DX009 (ip), vehicle: other 118 % of control | dose: 2.6 mg/kg/injection, schedule: Q01DX009 (ip), vehicle: Klucel (hydroxypropylcellulose) (HPC) 108 % of control and 114 % of control | dose: 3.0 mg/kg/injection, schedule: Q01DX001 (ip), vehicle: other 106 % of control | dose: 3.0 mg/kg/injection, schedule: Q01DX009 (ip), vehicle: other 124 % of control | dose: 4.0 mg/kg/injection, schedule: Q01DX009 (ip), vehicle: Klucel (hydroxypropylcellulose) (HPC) 108 % of control and 119 % of control | dose: 5.0 mg/kg/injection, schedule: Q04DX003 (ip), vehicle: Klucel (hydroxypropylcellulose) (HPC) 107 % of control | dose: 6.0 mg/kg/injection, schedule: Q01DX009 (ip), vehicle: Klucel (hydroxypropylcellulose) (HPC) 115 % of control and 119 % of control | dose: 8.0 mg/kg/injection, schedule: Q04DX003 (ip), vehicle: Klucel (hydroxypropylcellulose) (HPC) 110 % of control | dose: 9.0 mg/kg/injection, schedule: Q01DX009 (ip), vehicle: Klucel (hydroxypropylcellulose) (HPC) 107 % of control | dose: 12.0 mg/kg/injection, schedule: Q01DX001 (ip), vehicle: other 121 % of control | dose: 12.5 mg/kg/injection, schedule: Q01DX009 (ip), vehicle: Klucel (hydroxypropylcellulose) (HPC) 119 % of control | dose: 18.0 mg/kg/injection, schedule: Q04DX003 (ip), vehicle: Klucel (hydroxypropylcellulose) (HPC) 117 % of control | [7] 90 % of control

c1ccc([P+](Cc2ccco2)(c2ccccc2)c2ccccc2)cc1
inactive: dose: 5.0 mg/kg/injection, schedule: Q01DX001 (ip), vehicle: saline 103 % of control | dose: 10.0 mg/kg/injection, schedule: Q01DX001 (ip), vehicle: saline 97 % of control | dose: 20.0 mg/kg/injection, schedule: Q01DX001 (ip), vehicle: saline 90 % of control | dose: 40.0 mg/kg/injection, schedule: Q01DX001 (ip), vehicle: saline 89 % of control

Oc1ccccc1C=Nc1ccc(Cl)cc1
inactive: dose: 100.0 mg/kg/injection, schedule: Q04DX002 (ip), vehicle: saline with Tween-80 105 % of control | dose: 200.0 mg/kg/injection, schedule: Q04DX002 (ip), vehicle: saline with Tween-80 105 % of control | dose: 400.0 mg/kg/injection, schedule: Q04DX002 (ip), vehicle: saline with Tween-80 97 % of control

Cc1cccnc1NS(=O)(=O)c1ccccc1
inactive: dose: 100.0 mg/kg/injection, schedule: Q01DX009 (ip), vehicle: saline with Tween-80 101 % of control | [16] 94 % of control | dose: 200.0 mg/kg/injection, schedule: Q01DX009 (ip), vehicle: saline with Tween-80 98 % of control | [17] 94 % of control | dose: 400.0 mg/kg/injection, schedule: Q01DX009 (ip), vehicle: saline with Tween-80 102 % of control | [18] 94 % of control

From PubChem BioAssay AID248 (DTP/NCI, 2004)
